In ChEMBL document CHEMBL1131664, “Design and synthesis of potent and selective 5,6-fused heterocyclic thrombin inhibitors” (Bioorg Med Chem Lett, 1999) one finds Ki and ID50 data, which are given here for 13 compounds.

The target in one experiment is Prothrombin (Homo sapiens, UniProt P00734). Kind of experiment: Inhibition of Coagulation factor II.
The nature of experiment [1]: Inhibition of factor Xa.
In another experiment the target is Serine protease 1 (Homo sapiens, UniProt P07477). Kind of experiment: Inhibitory activity against trypsin.
The next experiment relates to Rattus norvegicus. The experiment in a line: Effect on thrombus weight in rat vena cava thrombosis model (iv administration). It counts as functional.

Chain of Serine protease 1 (P07477 whole entry): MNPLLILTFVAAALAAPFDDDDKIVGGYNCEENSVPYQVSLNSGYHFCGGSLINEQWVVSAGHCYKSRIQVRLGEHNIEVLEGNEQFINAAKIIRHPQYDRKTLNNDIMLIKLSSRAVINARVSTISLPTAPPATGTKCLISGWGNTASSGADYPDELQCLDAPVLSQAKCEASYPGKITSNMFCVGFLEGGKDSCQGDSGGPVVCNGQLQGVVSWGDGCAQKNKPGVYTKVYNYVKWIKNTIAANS

One may read the Ki as a dissociation constant, usually derived from enzyme kinetics or from competition with a known ligand. For the compound `N=C(N)c1ccc2c(ccn2CC(=O)N2CCC(Cc3cccc(F)c3)CC2)c1`, the Ki at Prothrombin worked out at 24 nM; in experiment [1], 11000 nM.
On to `N=C(N)c1ccc2c(c1)c(CC(=O)O)cn2CC(=O)N1CCC(Cc2ccccc2)CC1`, for which the values for the Ki (at Prothrombin; in experiment [1]) were 19 nM and 3000 nM, respectively.
The matching figures for `N=C(N)c1ccc2c(ccn2CC(=O)N2CCC(Cc3ccccc3F)CC2)c1`: 24 nM and 23000 nM.
Regarding `N=C(N)c1ccc2c(ccn2CC(=O)N2CCC(C(=O)c3ccccc3)CC2)c1`, the Ki on Prothrombin is above 21000 nM; in experiment [1] it was 9500 nM; at Serine protease 1, above 15000 nM.
`COC(=O)/C=C/c1cn(CC(=O)N2CCC(Cc3ccccc3)CC2)c2ccc(C(=N)N)cc12`: the Ki at Prothrombin is 28 nM; in experiment [1], 1200 nM; on Serine protease 1, 280 nM.
The matching figures for `N=C(N)c1c[nH]c2cc(S(=O)(=O)N3CCC(Cc4ccccc4)CC3)ccc12`: 210 nM, 3300 nM and 1200 nM.
On to `N=C(N)c1ccc2c(cnn2CC(=O)N2CCC(Cc3ccccc3)CC2)c1`, for which the Ki was 140 nM on Prothrombin, 2900 nM in experiment [1] and above 6000 nM at Serine protease 1.
For `N=C(N)c1ccc2c(c1)c(CCO)cn2CC(=O)N1CCC(Cc2ccccc2)CC1`, the results for the Ki (at Prothrombin; in experiment [1]; on Serine protease 1) were 7 nM, 2400 nM and 310 nM, respectively.
As for `N=C(N)c1ccc2c(c1)ncn2CC(=O)N1CCC(Cc2ccccc2)CC1`, the Ki came to 300 nM at Prothrombin and 25000 nM in experiment [1].
`N=C(N)c1ccc2c(ccn2CC(=O)N2CCC(Cc3ccccc3)CC2)c1`: the figures for the Ki (at Prothrombin; in experiment [1]; at Serine protease 1) were 18 nM, 10300 nM and above 15000 nM, respectively. For the same compound, the ID50 with Rattus norvegicus is 0.8 mg/kg/h.
Turning to `N=C(N)c1ccc2c(ccn2CC(=O)N2CCC(C(O)c3ccccc3)CC2)c1` (stereo not given), the results for the Ki (on Prothrombin; in experiment [1]; on Serine protease 1) were above 21000 nM, 16000 nM and above 15000 nM, respectively.
Turning to `COC(=O)Cc1cn(CC(=O)N2CCC(Cc3ccccc3)CC2)c2ccc(C(=N)N)cc12`, the Ki worked out at 7.4 nM at Prothrombin, 400 nM in experiment [1] and 140 nM on Serine protease 1.
As for `CC(=O)N[C@H](Cc1ccccc1)C(=O)N1CCC[C@H]1C(=O)N[C@@H](CCCN=C(N)N)B(O)O`, in the experiment with Rattus norvegicus, the ID50 came out at 0.04 mg/kg/h. This compound registered a Ki on Serine protease 1 of 9 nM.
